Experimental data: patent US20020035131A1, “Regimen and kit for amelioration of premature ejaculation” (Pentech Pharmaceuticals, Inc., priority 1999, published 2002)
“And” between values parts separate entries of the source, which are not always exact repeats. Equal entries are not always repeated.

Experiments:
[1] = system: normally potent male patients suffering from premature ejaculation; test: Example 1 prospective study: ejaculatory latency time (ELT) and frequency of intercourse, dose conversion and continual maintenance regimens; type: in vivo, human; conditions: for mean ELT after treatment: from a mean ELT of less than one minute
Description: The term “premature ejaculation” as used herein refers to ejaculation that occurs within 60 seconds of vaginal intromission. […] The patients were selected on the basis of a having baseline pretreatment ejaculation latency time (“ELT”) of less than about two minutes. An ELT of less than one minute was regarded as severe premature ejaculation dysfunction. In contrast, the average ELT of a normally potent person is about three to about four minutes. The baseline ELT of the patient was determined as the mean of measurements at a minimum of two acts of sexual intercourse prior to commencing treatment using a stopwatch operated by the patient. […] The term “acute” with respect to the dosing means that the patient ingested an oral dose of paroxetine daily after breakfast or lunch for a period of at least one week. The patients were supplied with an ejaculation diary and were asked to record their frequency of coitus, quality of erection and orgasm, and to record their ELT using a stopwatch. The patients were required to attempt coitus on at least two occasions each week at home. In some trials, the patient's partner was also instructed on the use of the stopwatch and asked to record their recollection of the timing of the patient's ejaculation. […] All patients in the study group were heterosexual, had no other sexual disorders and were either married or in a stable relationship. […] The mean age of the 94 patients was 39 years (range 18-61 years). […] Vital signs, such as heart rate, blood pressure and the like were also monitored by the Registered Nurse. […] Of the group, 55 men (59%) had lifelong premature ejaculation, with the remaining 39 men (41%) describing acquired premature ejaculation with previous acceptable ejaculatory control. Of the 55 men with lifelong premature ejaculation, 10 men (18%) had severe lifelong premature ejaculation and had never achieved intravaginal ejaculation. The patients in the study were enrolled into two groups, Group A and Group B. […] Each patient was supplied with an ejaculation diary and instructed to record their frequency of coitus, quality of erection and orgasm, and to measure and record their ejaculatory latency time using a stop-watch. The patients were required to attempt coitus on at least two occasions each week. Statistical analysis: A Student's t-test was used to compare the mean ELT values before and after treatment with paroxetine for each of Groups A and B.

[2] = system: normally potent male patients suffering from premature ejaculation; test: Example 2 Study Group 1: single blind cross-over, continual maintenance paroxetine vs placebo (ELT, coitus frequency); type: in vivo, human
Source text: All patients in the study group were heterosexual, had no other sexual disorders and were either married or in a stable relationship. Patients with erectile dysfunction, reduced sexual desire, inhibited male orgasm, chronic depressive, psychiatric or physical illness, alcohol or substance abuse and the use of psychotropic and anti-depressant medication were excluded from the trial. Study Group 1 was comprised of 26 patients who were randomized into two treatment groups, Group A and Group B. […] Group B received placebo similarly administered about 3-4 hours before sexual intercourse. Patients were reviewed every two weeks. Cross-over was then conducted in both groups after four weeks of treatment, following an intervening three week drug free “washout” period, for a further four weeks of treatment. None of the patients received any formal psychosexual counseling. Patients were supplied with a diary and were asked to record their frequency of coitus, quality of erection and orgasm. Patients were asked to measure their ELT using a stopwatch. Pre-treatment mean ELT was measured over a three week baseline period during which patients were asked to have sexual intercourse at least three times. Pre-treatment frequency of coitus was the mean number of attempts in the previous three months. Patients were asked not to use condoms or topical penile anaesthetic creams or sprays. The frequency data of coitus and ejaculatory latency time (ELT) during the paroxetine and placebo treatment phases were statistically compared (Student's t-test).

[3] = system: normally potent male patients suffering from premature ejaculation; test: Example 2 Study Group 2: single blind cross-over, daily paroxetine then continual maintenance vs placebo (ELT, coitus frequency); type: in vivo, human
[4] = system: central β-adrenergic receptors; conditions: unlike sertraline; cited from earlier work
[5] = Group A-Phase 2: 20 mg continual maintenance dose 3-4 hours prior to intercourse, further four weeks after Phase 1, 53 men
[6] = Group A-Phase 2: 20 mg continual maintenance, the 36/53 patients
[7] = Group B: 20 mg continual maintenance dose only, 3-4 hours prior to intercourse, four weeks, 33 men
[8] = Group B: solely 20 mg continual maintenance, the 14/33 responders
[9] = Group B: solely 20 mg continual maintenance, the 19/33 non-responders
[10] = Study Group 1-A, week 1: continual maintenance paroxetine 20 mg 3-4 hours before intercourse
[11] = Study Group 1-A, week 2: continual maintenance paroxetine 20 mg 3-4 hours before intercourse
[12] = Study Group 1-A, week 3: continual maintenance paroxetine 20 mg 3-4 hours before intercourse
[13] = Study Group 1-A, week 4: continual maintenance paroxetine 20 mg 3-4 hours before intercourse
[14] = Study Group 1-B, week 8: first week of continual maintenance paroxetine 20 mg after placebo and washout
[15] = Study Group 1-B, week 9: second week of continual maintenance paroxetine 20 mg after placebo and washout
[16] = Study Group 1-B, week 10: third week of continual maintenance paroxetine 20 mg after placebo and washout
[17] = Study Group 1-B, week 11: fourth week of continual maintenance paroxetine 20 mg after placebo and washout
[18] = Study Group 2-C, week 1: paroxetine 10 mg daily
[19] = Study Group 2-C, week 2: paroxetine 10 mg daily
[20] = Study Group 2-C, week 3: paroxetine 10 mg daily
[21] = Study Group 2-C, week 4: paroxetine 20 mg continual maintenance after three weeks 10 mg daily
[22] = Study Group 2-C, week 5: paroxetine 20 mg continual maintenance after three weeks 10 mg daily
[23] = Study Group 2-C, week 6: paroxetine 20 mg continual maintenance after three weeks 10 mg daily
[24] = Study Group 2-C, week 7: paroxetine 20 mg continual maintenance after three weeks 10 mg daily
[25] = Study Group 2-D, week 11: paroxetine 10 mg daily, first week after placebo phases and washout
[26] = Study Group 2-D, week 12: paroxetine 10 mg daily, second week after placebo phases and washout
[27] = Study Group 2-D, week 13: paroxetine 10 mg daily, third week after placebo phases and washout
[28] = Study Group 2-D, week 14: paroxetine 20 mg continual maintenance after three weeks 10 mg daily
[29] = Study Group 2-D, week 15: paroxetine 20 mg continual maintenance after three weeks 10 mg daily
[30] = Study Group 2-D, week 16: paroxetine 20 mg continual maintenance after three weeks 10 mg daily
[31] = Study Group 2-D, week 17: paroxetine 20 mg continual maintenance after three weeks 10 mg daily

Fc1ccc([C@@H]2CCNC[C@H]2COc2ccc3c(c2)OCO3)cc1 (relative stereo) [paroxetine, trans-(−)-3-(1,3-benzodioxol-5-yloxy)methyl-4-(4-fluorophenyl) piperidine]
patients who achieved and maintained improved ejaculatory control ([1]; Group A overall (36/61): four weeks daily 20 mg followed by conversion to continual maintenance): 59%
mean Frequency Intercourse Times/Week ([1]; Group A-Phase 1: 20 mg acute dose daily for four weeks, 61 men): 2.4 Times/Week
mean ELT ([1]; Group A-Phase 1: 20 mg acute dose daily, at four weeks, 61 men): 4.5 min
patients who regarded their ejaculatory control as significantly improved ([1]; Group A-Phase 1: 20 mg daily for four weeks, 53 of 61 patients): 87%
ELT of patients with improved ejaculatory control ([1]; Group A-Phase 1: 20 mg daily, after four weeks, the 53/61 responders): 5.1 min
mean ELT ([1]; Group A-Phase 1: 20 mg daily, after one week of treatment): 1.1 min
mean ELT ([1]; Group A-Phase 1: 20 mg daily, after two weeks): 1.6 min
mean ELT of patients without improved control ([1]; Group A-Phase 1: 20 mg daily, at four weeks, the 8/61 non-responders): 0.6 min
mean ELT ([1]; Group A-Phase 1: 20 mg daily, at three weeks): 3.5 min
frequency of sexual intercourse acts of patients without improved control ([1]; Group A-Phase 1: 20 mg daily, the 8/61 non-responders): 1.7 times/week
frequency of sexual intercourse acts of patients with improved ejaculatory control ([1]; Group A-Phase 1: 20 mg daily, the 53/61 responders): 2.5 times/week
mean ELT [1, 5]: 3.9 min
mean Frequency Intercourse Times/Week [1, 5]: 2.6 Times/Week
mean ELT of patients who failed to maintain improved control ([1]; Group A-Phase 2: 20 mg continual maintenance, at four weeks, the 16/53 men): 0.6 min
frequency of acts of sexual intercourse/week of patients who failed to maintain improved control ([1]; Group A-Phase 2: 20 mg continual maintenance, the 16/53 men): 2.8 acts of sexual intercourse/week
frequency of acts of sexual intercourse/week of patients who maintained improved control [1, 6]: 2.4 acts of sexual intercourse/week
mean ELT of patients who maintained improved ejaculatory control [1, 6]: 5.5 min
patients who failed to maintain improved ejaculatory control (recurrence of premature ejaculation) ([1]; Group A-Phase 2: after conversion from daily to 20 mg continual maintenance, 16/53): 31% and 32%
patients who maintained improved ejaculatory control ([1]; Group A-Phase 2: four weeks 20 mg continual maintenance after four weeks daily, 36/53): 69% and 68%
mean ELT [1, 7]: 1.5 min
mean Frequency Intercourse Times/Week [1, 7]: 2.2 Times/Week
patients who regarded their ejaculatory control as significantly improved (fraction of patients) ([1]; Group B: solely 20 mg continual maintenance): 14/33
patients who achieved ejaculatory control ([1]; Group B: solely 20 mg continual maintenance, 14 of 33): 42%
frequency of acts of sexual intercourse/week of patients with improved control [1, 8]: 2.4 acts of sexual intercourse/week
mean ELT of patients with improved ejaculatory control [1, 8]: 2.7 min
frequency of acts of intercourse/week of patients with no change in ejaculatory control [1, 9]: two
mean ELT of patients with no change in ejaculatory control [1, 9]: 0.4 min
mean ELT after treatment ([1]; four weeks initial loading and four weeks continual maintenance): greater than 2.5 minutes
men achieving intra-vaginal ejaculation for the first time ([1]; men with severe lifelong premature ejaculation who had never achieved intra-vaginal ejaculation (including four in Group B)): 10/10
time to improved ejaculatory control after initiating treatment ([1]; paroxetine oral therapy regimen): 1-2 weeks
mean ELT after treatment ([1]; solely continual maintenance dosage over about four weeks): at least 1.5 minutes
Coitus Frequency/wk [2, 10]: 1.1 /wk
Ejaculatory Latency Time [2, 10]: 1.0 min
Coitus Frequency/wk [2, 11]: 1.4 /wk
Ejaculatory Latency Time [2, 11]: 3.0 min
Coitus Frequency/wk [2, 12]: 2.3 /wk
Ejaculatory Latency Time [2, 12]: 2.9 min
Coitus Frequency/wk [2, 13]: 3.2 /wk
Ejaculatory Latency Time [2, 13]: 3.2 min
Coitus Frequency/wk [2, 14]: 0.6 /wk
Ejaculatory Latency Time [2, 14]: 1.3 min
Coitus Frequency/wk [2, 15]: 1.9 /wk
Ejaculatory Latency Time [2, 15]: 2.8 min
Coitus Frequency/wk [2, 16]: 3.5 /wk
Ejaculatory Latency Time [2, 16]: 3.5 min
Coitus Frequency/wk [2, 17]: 3.1 /wk
Ejaculatory Latency Time [2, 17]: 3.5 min
time to prolongation of the ejaculatory interval (ELT) ([2]; Study Group 1: continual maintenance paroxetine): 1-2 weeks
patients achieving intra-vaginal ejaculation for the first time ([2]; Study Group 1, patients who had never previously achieved it, after two weeks of treatment): one of three
Coitus Frequency/wk [3, 18]: 1.7 /wk
Ejaculatory Latency Time [3, 18]: 1.2 min
Coitus Frequency/wk [3, 19]: 1.9 /wk
Ejaculatory Latency Time [3, 19]: 1.8 min
Coitus Frequency/wk [3, 20]: 2.7 /wk
Ejaculatory Latency Time [3, 20]: 4.3 min
Coitus Frequency/wk [3, 21]: 2.3 /wk
Ejaculatory Latency Time [3, 21]: 4.5 min
Coitus Frequency/wk [3, 22]: 2.0 /wk
Ejaculatory Latency Time [3, 22]: 5.2 min
Coitus Frequency/wk [3, 23]: 2.9 /wk
Ejaculatory Latency Time [3, 23]: 4.7 min
Coitus Frequency/wk [3, 24]: 2.4 /wk
Ejaculatory Latency Time [3, 24]: 5.8 min
Coitus Frequency/wk [3, 25]: 2.0 /wk
Ejaculatory Latency Time [3, 25]: 2.2 min
Coitus Frequency/wk [3, 26]: 2.2 /wk
Ejaculatory Latency Time [3, 26]: 3.5 min
Coitus Frequency/wk [3, 27]: 3.1 /wk
Ejaculatory Latency Time [3, 27]: 3.3 min
Coitus Frequency/wk [3, 28]: 3.0 /wk
Ejaculatory Latency Time [3, 28]: 4.2 min
Coitus Frequency/wk [3, 29]: 2.6 /wk
Ejaculatory Latency Time [3, 29]: 3.9 min
Coitus Frequency/wk [3, 30]: 2.5 /wk
Ejaculatory Latency Time [3, 30]: 4.6 min
Coitus Frequency/wk [3, 31]: 2.7 /wk
Ejaculatory Latency Time [3, 31]: 6.1 min
patients achieving intra-vaginal ejaculation for the first time ([3]; Study Group 2, patients who had never previously achieved it, after two weeks of treatment): all of the five
affinity for central β-adrenergic receptors [4]: little affinity
